The values that follow come from ChEMBL document CHEMBL5356972, “Design and synthesis of cantharidin derivative DCZ5418 as a TRIP13 inhibitor with anti-multiple myeloma activity in vitro and in vivo” (Bioorg Med Chem Lett, 2024).

Activity calls are given as the source filed them. The calls are words filed in the database; no cut-off is given here.

The subject of series [1] is H929R. The series can be described thus: Inhibition of cell growth in human H929R cells at 10 uM incubated for 48 hrs by CCK-8 assay. It counts as functional, cell-based.
Series [2] in a line: Inhibition of cell growth in human H929R cells at 10 uM incubated for 48 hrs by CCK-8 assay relative to control. It counts as functional. In general terms: Tetrazolium assays rely on reduction of a dye to a coloured formazan, in cell work by metabolically active cells.
Series [3] can be described thus: Inhibition of cell growth in human ARP-1 cells incubated for 48 hrs by CCK-8 assay. Particulars: ARP-1, 48 h.
Series [4] is described as follows: Inhibition of cell growth in human OCI-My5 cells incubated for 48 hrs by CCK-8 assay. Particulars: OCI-My5, 48 h.
Series [5] is described as follows: Toxicity in immunodeficient nude mouse xenografted with human H929R cells assessed as reduction in body weight at 25 mg/kg, ip administered once daily for 16 days. It counts as organism-based. As to conditions: in vivo, 384 h, time 16 day.
A short description of series [6]: Inhibition of cell growth in human H929R cells incubated for 48 hrs by CCK-8 assay.
The subject of series [7] is H929R. The series is described as follows: Antitumor activity against human H929R cells xenografted in immunodeficient nude mouse assessed as reduction in tumor growth at 15 mg/kg, ip administered once daily for 16 days by vernier caliper method. The series is classed as functional, organism-based. As to conditions: time 16.0 day. (Xenograft models place foreign cells or tissue in a host animal.)

Series [8] in a line: Acute toxicity in mouse assessed as reduction in spontaneous activities at 50 mg/kg, ip. Particulars: in vivo. It counts as organism-based.
The nature of series [9]: Acute toxicity in mouse assessed as kidney injury at 50 mg/kg, ip. It counts as organism-based. As to conditions: in vivo.
In series [10] the target is T1, Pachytene checkpoint protein 2 homolog (Homo sapiens) (UniProt Q15645).
T1 sequence (whole entry): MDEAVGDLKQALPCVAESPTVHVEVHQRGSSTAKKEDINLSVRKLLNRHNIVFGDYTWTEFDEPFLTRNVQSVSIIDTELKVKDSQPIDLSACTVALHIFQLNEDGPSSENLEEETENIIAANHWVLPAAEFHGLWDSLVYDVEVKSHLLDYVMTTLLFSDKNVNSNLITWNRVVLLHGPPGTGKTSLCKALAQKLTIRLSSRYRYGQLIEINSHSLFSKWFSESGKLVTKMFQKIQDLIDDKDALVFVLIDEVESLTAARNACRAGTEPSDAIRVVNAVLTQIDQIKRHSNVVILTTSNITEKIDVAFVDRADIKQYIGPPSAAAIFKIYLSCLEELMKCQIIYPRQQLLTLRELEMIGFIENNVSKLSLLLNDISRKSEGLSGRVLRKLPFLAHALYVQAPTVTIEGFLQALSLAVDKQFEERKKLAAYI
The series is described as follows: Binding affinity to TRIP13 (unknown origin) by SPR analysis.

Series [11] can be described thus: Acute toxicity in mouse assessed as liver injury at 50 mg/kg, ip. The series is classed as organism-based. Particulars: in vivo.
In series [12] the target is T2, Pachytene checkpoint protein 2 homolog (Homo sapiens, UniProt Q15645).
T2 sequence (Q15645 whole entry): T1 sequence (whole entry)
The series can be described thus: Binding affinity to TRIP13 (unknown origin) assessed as dissociation constant by SPR analysis.

Series [13] in a line: Acute toxicity in mouse assessed as heart injury at 50 mg/kg, ip. The series is classed as organism-based. As to conditions: in vivo.
Series [14] is described as follows: Acute toxicity in mouse assessed as abnormal behaviors at 50 mg/kg, ip. It counts as organism-based. As to conditions: in vivo.
Series [15] in a line: Inhibition of cell growth in human CD138-positive cells at 20 uM incubated for 48 hrs by CCK-8 assay relative to control. It counts as functional.
Series [16] is described as follows: Toxicity in immunodeficient nude mouse xenografted with human H929R cells assessed as reduction in body weight at 15 mg/kg, ip administered once daily for 16 days. It counts as organism-based. As to conditions: in vivo, 384 h, time 16 day.

For orientation: inhibition means the drop in the measured response relative to a control, in per cent. For the compound `O=C1C2C3C=C(Br)C(O3)C2C(=O)N1c1ccc(Oc2ccncc2)cc1` (stereo unspecified), the inhibition result with H929R [1] is “Active”.
As to `O=C(NCCCO)C1CCCCC1C(=O)Nc1ccc(Cc2ccncc2)cc1` (stereo unspecified), in series [2], 10 µM produced 6.9% inhibition.
The compound `CN1CCN(C(=O)C2C3C=C(Br)C(O3)C2C(=O)Nc2ccc(Cc3ccncc3)cc2)CC1` (stereo unspecified) returned an inhibition at 10 µM in series [2] of 43.1%.
The term IC50 denotes the point on the concentration scale where inhibition reaches its midpoint. The low end stands for greater potency in that assay, the high end for weaker potency in that assay. In the case of `O=C1C2C3C=CC(C4CC34)C2C(=O)N1c1ccc(Cc2ccncc2)cc1` (stereo unspecified), the IC50 in series [3] came to 4.13 µM; in series [4], 5.12 µM; in [6] it was 1.35 µM. In addition, the inhibition at 10 µM in series [2] is 28.2%. Further, the Activity entry in series [5] was “Non-Toxic”.
With `CN1CCN(C(=O)C2C3C=CC(O3)C2C(=O)Nc2ccc(Cc3ccncc3)cc2)CC1` (stereo unspecified), in series [2], at 10 µM the inhibition was 29.8%.
Take `O=C(NCCCO)C1C2C=CC(O2)C1C(=O)Nc1ccc(Cc2ccncc2)cc1` (stereo unspecified): the inhibition at 10 µM in [2] amounted to 21.2%.
Consider `C[C@@]12C(=O)N(c3ccc(Cc4ccncc4)cc3)C(=O)[C@]1(C)[C@H]1CC[C@@H]2O1` [listing 1 of 2 here], for which the outcome in the series with H929R [7] was Active.
As to `C[C@@]12C(=O)OC(=O)[C@]1(C)[C@H]1CC[C@@H]2O1` [CANTHARIDIN], the Activity result in series [8], in series [9] and in series [11] was “Toxic” in each case. Further, in series [10], the result was inactive.
Consider `CN1CCN(C(=O)C2CCCCC2C(=O)Nc2ccc(Oc3ccncc3)cc2)CC1` (stereo unspecified), for which the inhibition result in the series on H929R [1] is “Active”.
Consider `O=C1C2C3CCC(C3)C2C(=O)N1c1ccc(Cc2ccncc2)cc1` (stereo unspecified), for which at 10 µM the inhibition in [2] was 41.4%. Moreover, in series [10], the outcome was inactive.
Usually Kd stands for the equilibrium constant for the complex coming apart. Take `O=C1C2C3C=C(Br)C(O3)C2C(=O)N1c1ccc(Cc2ccncc2)cc1` (stereo unspecified): the equilibrium dissociation constant (Kd) in [12] worked out at 149 µM. In addition, at 10 µM the inhibition in [2] was 51.7%.
`CN1CCN(C(=O)C2CCCCC2C(=O)Nc2ccc(Cc3ccncc3)cc2)CC1` (stereo unspecified): in series [2], the inhibition at 10 µM worked out at 17.2%.
With `C[C@@]12C(=O)N(c3ccc(Cc4ccncc4)cc3)C(=O)[C@]1(C)[C@H]1CC[C@@H]2O1` [listing 2 of 2 here], the values for the IC50 in series [3], in series [4] and in series [6] were 3.18 µM, 4.32 µM and 8.47 µM, respectively. Also, the Activity result in [13], in [14], in series [9] and in series [11] was “Non-Toxic” in each case. In series [2], this compound showed an inhibition at 10 µM of 49.3%. This compound also displayed an inhibition at 20 µM in [15] of 57%.
As for `C[C@@]12C(=O)N(c3ccc(Cc4ccncc4)cc3)C(=O)[C@]1(C)[C@H]1CC[C@@H]2O1.Cl`, the Activity result in [16] is reported as “Non-Toxic”.
